Source: ChEMBL document CHEMBL3044736, “Synthesis, characterization, solvatochromic properties, and antimicrobial evaluation of 5-acetyl-2-thioxo-dihydro-pyrimidine-4,6-dione-based chalcones” (2013)
Converted amounts (≈) assume the structure as drawn.

What was measured:
Format in all cases: functional
Klebsiella pneumoniae [1] = assay: Antimicrobial activity against Klebsiella pneumoniae MTCC 109 by agar cup diffusion method
Escherichia coli [2] = assay: Antimicrobial activity against Escherichia coli MTCC 443 assessed as diameter of growth inhibition zone at 250 ug/ml after 18-24 hr by agar cup diffusion method; conditions: read-out: DIZ
Pseudomonas aeruginosa [3] = assay: Antimicrobial activity against Pseudomonas aeruginosa MTCC 1688 assessed as diameter of growth inhibition zone at 50 ug/ml after 18-24 hr by agar cup diffusion method; conditions: read-out: DIZ
Candida albicans [4] = assay: Antimicrobial activity against Candida albicans MTCC 227 by agar cup diffusion method
Staphylococcus aureus [5] = assay: Antimicrobial activity against Staphylococcus aureus MTCC 96 assessed as diameter of growth inhibition zone at 250 ug/ml after 18-24 hr by agar cup diffusion method; conditions: read-out: DIZ
Trichophyton rubrum [6] = assay: Antimicrobial activity against Trichophyton rubrum MTCC 296 assessed as diameter of growth inhibition zone at 50 ug/ml after 48-96 hr by agar cup diffusion method; conditions: read-out: DIZ
Escherichia coli [7] = assay: Antimicrobial activity against Escherichia coli MTCC 443 assessed as diameter of growth inhibition zone at 25 ug/ml after 18-24 hr by agar cup diffusion method; conditions: read-out: DIZ
Klebsiella pneumoniae [8] = assay: Antimicrobial activity against Klebsiella pneumoniae MTCC 109 assessed as diameter of growth inhibition zone at 250 ug/ml after 18-24 hr by agar cup diffusion method; conditions: read-out: DIZ
Trichophyton rubrum [9] = assay: Antimicrobial activity against Trichophyton rubrum MTCC 296 assessed as diameter of growth inhibition zone at 100 ug/ml after 48-96 hr by agar cup diffusion method; conditions: read-out: DIZ
Penicillium [10] = assay: Antimicrobial activity against Penicillium wild strain assessed as diameter of growth inhibition zone at 50 ug/ml after 48-96 hr by agar cup diffusion method; conditions: read-out: DIZ
Candida albicans [11] = assay: Antimicrobial activity against Candida albicans MTCC 227 assessed as diameter of growth inhibition zone at 100 ug/ml after 48-96 hr by agar cup diffusion method; conditions: read-out: DIZ
Penicillium [12] = assay: Antimicrobial activity against Penicillium wild strain assessed as diameter of growth inhibition zone at 100 ug/ml after 48-96 hr by agar cup diffusion method; conditions: read-out: DIZ
Streptococcus pyogenes [13] = assay: Antimicrobial activity against Streptococcus pyogenes MTCC 442 by agar cup diffusion method
Penicillium [14] = assay: Antimicrobial activity against Penicillium wild strain by agar cup diffusion method
Pseudomonas aeruginosa [15] = assay: Antimicrobial activity against Pseudomonas aeruginosa MTCC 1688 assessed as diameter of growth inhibition zone at 250 ug/ml after 18-24 hr by agar cup diffusion method; conditions: read-out: DIZ
Klebsiella pneumoniae [16] = assay: Antimicrobial activity against Klebsiella pneumoniae MTCC 109 assessed as diameter of growth inhibition zone at 100 ug/ml after 18-24 hr by agar cup diffusion method; conditions: read-out: DIZ
Staphylococcus aureus [17] = assay: Antimicrobial activity against Staphylococcus aureus MTCC 96 assessed as diameter of growth inhibition zone at 100 ug/ml after 18-24 hr by agar cup diffusion method; conditions: read-out: DIZ
Aspergillus clavatus [18] = assay: Antimicrobial activity against Aspergillus clavatus MTCC 1323 by agar cup diffusion method
Streptococcus pyogenes [19] = assay: Antimicrobial activity against Streptococcus pyogenes MTCC 442 assessed as diameter of growth inhibition zone at 50 ug/ml after 18-24 hr by agar cup diffusion method; conditions: read-out: DIZ
Streptococcus pyogenes [20] = assay: Antimicrobial activity against Streptococcus pyogenes MTCC 442 assessed as diameter of growth inhibition zone at 25 ug/ml after 18-24 hr by agar cup diffusion method; conditions: read-out: DIZ
Klebsiella pneumoniae [21] = assay: Antimicrobial activity against Klebsiella pneumoniae MTCC 109 assessed as diameter of growth inhibition zone at 50 ug/ml after 18-24 hr by agar cup diffusion method; conditions: read-out: DIZ
Escherichia coli [22] = assay: Antimicrobial activity against Escherichia coli MTCC 443 by agar cup diffusion method
Streptococcus pyogenes [23] = assay: Antimicrobial activity against Streptococcus pyogenes MTCC 442 assessed as diameter of growth inhibition zone at 250 ug/ml after 18-24 hr by agar cup diffusion method; conditions: read-out: DIZ
Streptococcus pyogenes [24] = assay: Antimicrobial activity against Streptococcus pyogenes MTCC 442 assessed as diameter of growth inhibition zone at 100 ug/ml after 18-24 hr by agar cup diffusion method; conditions: read-out: DIZ
Trichophyton rubrum [25] = assay: Antimicrobial activity against Trichophyton rubrum MTCC 296 assessed as diameter of growth inhibition zone at 250 ug/ml after 48-96 hr by agar cup diffusion method; conditions: read-out: DIZ
Pseudomonas aeruginosa [26] = assay: Antimicrobial activity against Pseudomonas aeruginosa MTCC 1688 by agar cup diffusion method
Escherichia coli [27] = assay: Antimicrobial activity against Escherichia coli MTCC 443 assessed as diameter of growth inhibition zone at 50 ug/ml after 18-24 hr by agar cup diffusion method; conditions: read-out: DIZ
Aspergillus clavatus [28] = assay: Antimicrobial activity against Aspergillus clavatus MTCC 1323 assessed as diameter of growth inhibition zone at 50 ug/ml after 48-96 hr by agar cup diffusion method; conditions: read-out: DIZ
Escherichia coli [29] = assay: Antimicrobial activity against Escherichia coli MTCC 443 assessed as diameter of growth inhibition zone at 100 ug/ml after 18-24 hr by agar cup diffusion method; conditions: read-out: DIZ
Pseudomonas aeruginosa [30] = assay: Antimicrobial activity against Pseudomonas aeruginosa MTCC 1688 assessed as diameter of growth inhibition zone at 25 ug/ml after 18-24 hr by agar cup diffusion method; conditions: read-out: DIZ
Candida albicans [31] = assay: Antimicrobial activity against Candida albicans MTCC 227 assessed as diameter of growth inhibition zone at 50 ug/ml after 48-96 hr by agar cup diffusion method; conditions: read-out: DIZ
Candida albicans [32] = assay: Antimicrobial activity against Candida albicans MTCC 227 assessed as diameter of growth inhibition zone at 25 ug/ml after 48-96 hr by agar cup diffusion method; conditions: read-out: DIZ
Trichophyton rubrum [33] = assay: Antimicrobial activity against Trichophyton rubrum MTCC 296 assessed as diameter of growth inhibition zone at 25 ug/ml after 48-96 hr by agar cup diffusion method; conditions: read-out: DIZ
Staphylococcus aureus [34] = assay: Antimicrobial activity against Staphylococcus aureus MTCC 96 by agar cup diffusion method
Penicillium [35] = assay: Antimicrobial activity against Penicillium wild strain assessed as diameter of growth inhibition zone at 250 ug/ml after 48-96 hr by agar cup diffusion method; conditions: read-out: DIZ
Aspergillus clavatus [36] = assay: Antimicrobial activity against Aspergillus clavatus MTCC 1323 assessed as diameter of growth inhibition zone at 250 ug/ml after 48-96 hr by agar cup diffusion method; conditions: read-out: DIZ
Staphylococcus aureus [37] = assay: Antimicrobial activity against Staphylococcus aureus MTCC 96 assessed as diameter of growth inhibition zone at 25 ug/ml after 18-24 hr by agar cup diffusion method; conditions: read-out: DIZ
Staphylococcus aureus [38] = assay: Antimicrobial activity against Staphylococcus aureus MTCC 96 assessed as diameter of growth inhibition zone at 50 ug/ml after 18-24 hr by agar cup diffusion method; conditions: read-out: DIZ
Aspergillus clavatus [39] = assay: Antimicrobial activity against Aspergillus clavatus MTCC 1323 assessed as diameter of growth inhibition zone at 100 ug/ml after 48-96 hr by agar cup diffusion method; conditions: read-out: DIZ
Candida albicans [40] = assay: Antimicrobial activity against Candida albicans MTCC 227 assessed as diameter of growth inhibition zone at 250 ug/ml after 48-96 hr by agar cup diffusion method; conditions: read-out: DIZ
Pseudomonas aeruginosa [41] = assay: Antimicrobial activity against Pseudomonas aeruginosa MTCC 1688 assessed as diameter of growth inhibition zone at 100 ug/ml after 18-24 hr by agar cup diffusion method; conditions: read-out: DIZ
Penicillium [42] = assay: Antimicrobial activity against Penicillium wild strain assessed as diameter of growth inhibition zone at 25 ug/ml after 48-96 hr by agar cup diffusion method; conditions: read-out: DIZ
Trichophyton rubrum [43] = assay: Antimicrobial activity against Trichophyton rubrum MTCC 296 by agar cup diffusion method
Klebsiella pneumoniae [44] = assay: Antimicrobial activity against Klebsiella pneumoniae MTCC 109 assessed as diameter of growth inhibition zone at 25 ug/ml after 18-24 hr by agar cup diffusion method; conditions: read-out: DIZ
Aspergillus clavatus [45] = assay: Antimicrobial activity against Aspergillus clavatus MTCC 1323 assessed as diameter of growth inhibition zone at 25 ug/ml after 48-96 hr by agar cup diffusion method; conditions: read-out: DIZ

O=C(/C=C/c1ccccc1)C1C(=O)NC(=S)NC1=O
MBC (Klebsiella pneumoniae [1]): 250 mg/L (≈ 911 µM)
MIC (Klebsiella pneumoniae [1]): 200 mg/L (≈ 729 µM)
zone of inhibition at 250 µg/mL (Escherichia coli [2]): 17 mm
zone of inhibition at 50 µg/mL (Pseudomonas aeruginosa [3]): 13 mm
MFC (Candida albicans [4]): 1000 mg/L (≈ 3650 µM)
MIC (Candida albicans [4]): 500 mg/L (≈ 1820 µM)
zone of inhibition at 250 µg/mL (Staphylococcus aureus [5]): 17 mm
zone of inhibition at 50 µg/mL (Trichophyton rubrum [6]): 24 mm
zone of inhibition at 25 µg/mL (Escherichia coli [7]): 12 mm
zone of inhibition at 250 µg/mL (Klebsiella pneumoniae [8]): 17 mm
zone of inhibition at 100 µg/mL (Trichophyton rubrum [9]): 24 mm
zone of inhibition at 50 µg/mL (Penicillium [10]): 21 mm
zone of inhibition at 100 µg/mL (Candida albicans [11]): 22 mm
zone of inhibition at 100 µg/mL (Penicillium [12]): 22 mm
MBC (Streptococcus pyogenes [13]): 500 mg/L (≈ 1820 µM)
MIC (Streptococcus pyogenes [13]): 250 mg/L (≈ 911 µM)
MFC (Penicillium [14]): > 1000 mg/L
MIC (Penicillium [14]): 1000 mg/L (≈ 3650 µM)
zone of inhibition at 250 µg/mL (Pseudomonas aeruginosa [15]): 17 mm
zone of inhibition at 100 µg/mL (Klebsiella pneumoniae [16]): 14 mm
zone of inhibition at 100 µg/mL (Staphylococcus aureus [17]): 15 mm
MFC (Aspergillus clavatus [18]): 1000 mg/L (≈ 3650 µM)
MIC (Aspergillus clavatus [18]): 1000 mg/L (≈ 3650 µM)
zone of inhibition at 50 µg/mL (Streptococcus pyogenes [19]): 15 mm
zone of inhibition at 25 µg/mL (Streptococcus pyogenes [20]): 12 mm
zone of inhibition at 50 µg/mL (Klebsiella pneumoniae [21]): 12 mm
MBC (Escherichia coli [22]): 500 mg/L (≈ 1820 µM)
MIC (Escherichia coli [22]): 250 mg/L (≈ 911 µM)
zone of inhibition at 250 µg/mL (Streptococcus pyogenes [23]): 17 mm
zone of inhibition at 100 µg/mL (Streptococcus pyogenes [24]): 15 mm
zone of inhibition at 250 µg/mL (Trichophyton rubrum [25]): 25 mm
MBC (Pseudomonas aeruginosa [26]): 250 mg/L (≈ 911 µM)
MIC (Pseudomonas aeruginosa [26]): 250 mg/L (≈ 911 µM)
zone of inhibition at 50 µg/mL (Escherichia coli [27]): 15 mm
zone of inhibition at 50 µg/mL (Aspergillus clavatus [28]): 19 mm
zone of inhibition at 100 µg/mL (Escherichia coli [29]): 15 mm
zone of inhibition at 25 µg/mL (Pseudomonas aeruginosa [30]): 10 mm
zone of inhibition at 50 µg/mL (Candida albicans [31]): 18 mm
zone of inhibition at 25 µg/mL (Candida albicans [32]): 16 mm
zone of inhibition at 25 µg/mL (Trichophyton rubrum [33]): 20 mm
MBC (Staphylococcus aureus [34]): 250 mg/L (≈ 911 µM)
MIC (Staphylococcus aureus [34]): 250 mg/L (≈ 911 µM)
zone of inhibition at 250 µg/mL (Penicillium [35]): 24 mm
zone of inhibition at 250 µg/mL (Aspergillus clavatus [36]): 24 mm
zone of inhibition at 25 µg/mL (Staphylococcus aureus [37]): 10 mm
zone of inhibition at 50 µg/mL (Staphylococcus aureus [38]): 13 mm
zone of inhibition at 100 µg/mL (Aspergillus clavatus [39]): 21 mm
zone of inhibition at 250 µg/mL (Candida albicans [40]): 22 mm
zone of inhibition at 100 µg/mL (Pseudomonas aeruginosa [41]): 15 mm
zone of inhibition at 25 µg/mL (Penicillium [42]): 19 mm
MFC (Trichophyton rubrum [43]): 1000 mg/L (≈ 3650 µM)
MIC (Trichophyton rubrum [43]): 1000 mg/L (≈ 3650 µM)
zone of inhibition at 25 µg/mL (Klebsiella pneumoniae [44]): 10 mm
zone of inhibition at 25 µg/mL (Aspergillus clavatus [45]): 18 mm
